Results taken from patent EP0153845A2, “CRF analogs” (THE SALK INSTITUTE FOR BIOLOGICAL STUDIES, priority 1984, dated 1985).
Square brackets hold non-standard residues; d marks the D form. Ends that are not written are not given here. Peptide text beside a SMILES is read from it. Nle = CCCC[C@H](N)C(=O)O

Legend:
[1] = target: T1, cultured rat pituitary cells (Rattus norvegicus, UniProt P35353); assay: Block of ACTH and β-endorphin secretion by cultured rat pituitary cells by CRF antagonists (procedure of Example XLIII); assay type: cell-based; settings: for secretion of ACTH and β-END-LI (antagonist test): general procedure of Example XLIII
T1 sequence (P35353 24-415): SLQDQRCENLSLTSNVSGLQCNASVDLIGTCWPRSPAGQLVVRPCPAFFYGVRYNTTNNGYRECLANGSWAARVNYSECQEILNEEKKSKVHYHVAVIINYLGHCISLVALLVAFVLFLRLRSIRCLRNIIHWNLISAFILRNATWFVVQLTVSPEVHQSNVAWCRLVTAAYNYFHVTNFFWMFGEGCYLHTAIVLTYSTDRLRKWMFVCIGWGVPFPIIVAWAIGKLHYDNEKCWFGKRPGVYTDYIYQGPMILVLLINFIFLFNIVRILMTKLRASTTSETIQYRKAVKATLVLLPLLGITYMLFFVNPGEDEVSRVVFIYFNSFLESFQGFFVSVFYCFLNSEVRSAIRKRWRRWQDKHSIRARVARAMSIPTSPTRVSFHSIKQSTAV
Description: (§1) The effectiveness of synthetic CRF antagonists to block the secretion of ACTH and B-endorphin by cultured rat pituitary cells is measured using the procedure as generally set forth in Vale et al., Endocrinology, 91, 562 (1972). In vivo testing is carried out using the general procedure set forth in C. Rivier et al., Science, 218, 377 (1982).

[2] = system: ACTH and B-END-LI secretion; assay: ACTH and β-END-LI secretion in vivo after intravenous hCRF in rats
Description: Plasma levels of ACTH and B-END-LI are elevated for at least 5-20 minutes following the intraveneous administration of hCRF to nembutal-anesthesized male rats and to quiescent male or female rats with indwelling intravenous cannulae.

[3] = Lowering of blood pressure, in vivo testing by the general procedure of Example III
spontaneous ACTH release = assay: Spontaneous ACTH release by adrenalectomized rats; assay type: in vivo; settings: iv injection of 3 mg/kg BW (2.7 nmole)
Description: as §1
The in vivo effect of CRF antagonists is tested on the spontaneous ACTH release by adrenalectomized rats.

[4] = system: ACTH rise due to ether-exposure; assay: Ether-exposure (stressor) induced ACTH rise in intact rats; assay type: in vivo
[5] = system: TRF-stimulated secretion of TSH and prolactin; assay: Specificity: effect on TRF-stimulated TSH and prolactin secretion; assay type: cell-based
[6] = system: CRF-induced ACTH secretion; assay: CRF-induced ACTH secretion in intact, non-anesthetized rats; assay type: in vivo
[7] = system: GRF-stimulated secretion of GH; assay: Specificity: effect on GRF-stimulated GH secretion; assay type: cell-based
[8] = system: GnRH-stimulated secretion of LH and FSH; assay: Specificity: effect on GnRH-stimulated LH and FSH secretion; assay type: cell-based

Row | Molecule | secretion of ACTH and β-END-LI (antagonist test) [1] | further results
1 | CCCC[C@H](NC(=O)[C@H](CCC(=O)O)NC(=O)[C@H](CC(C)C)NC(=O)[C@H](CCCC)NC(=O)[C@H](CCC(=O)O)NC(=O)[C@H](CCCNC(=N)N)NC(=O)[C@H](CC(C)C)NC(=O)[C@H](CC(C)C)NC(=O)[C@H](Cc1c[nH]cn1)NC(=O)[C@H](Cc1ccccc1)NC(=O)[C@@H](NC(=O)[C@@H](N)CC(C)C)[C@@H](C)O)C(=O)N[C@@H](C)C(=O)N[C@@H](CCCCN)C(=O)N[C@@H](C)C(=O)N[C@@H](CCC(=O)O)C(=O)N[C@@H](CCC(N)=O)C(=O)N[C@@H](CCC(=O)O)C(=O)N[C@@H](C)C(=O)N[C@@H](CCC(=O)O)C(=O)N[C@@H](CCC(N)=O)C(=O)N[C@@H](C)C(=O)N[C@@H](C)C(=O)N[C@@H](CC(C)C)C(=O)N[C@@H](CC(N)=O)C(=O)N[C@@H](CCCNC(=N)N)C(=O)N[C@@H](CC(C)C)C(=O)N[C@@H](CC(C)C)C(=O)N[C@@H](CC(C)C)C(=O)N[C@@H](CCC(=O)O)C(=O)N[C@@H](CCC(=O)O)C(=O)N[C@@H](C)C(N)=O [[Nle^18,21]-AHC(10-41)] (H-LTFHLLRE[Nle]LE[Nle]AKAEQEAEQAALNRLLLEEA-NH2) | inhibits | –
2 | CCCC[C@H](NC(=O)[C@H](CCC(=O)O)NC(=O)[C@H](CC(C)C)NC(=O)[C@@H](NC(=O)[C@H](CCC(=O)O)NC(=O)[C@H](CCCNC(=N)N)NC(=O)[C@H](CC(C)C)NC(=O)[C@H](CC(C)C)NC(=O)[C@H](Cc1c[nH]cn1)NC(=O)[C@H](Cc1ccccc1)NC(=O)[C@@H](NC(=O)[C@H](CC(C)C)NC(=O)[C@@H](N)CC(=O)O)[C@@H](C)O)C(C)C)C(=O)N[C@@H](C)C(=O)N[C@@H](CCCNC(=N)N)C(=O)N[C@@H](C)C(=O)N[C@@H](CCC(=O)O)C(=O)N[C@@H](CCC(N)=O)C(=O)N[C@@H](CC(C)C)C(=O)N[C@@H](C)C(=O)N[C@@H](CCC(N)=O)C(=O)N[C@@H](CCC(N)=O)C(=O)N[C@@H](C)C(=O)N[C@@H](Cc1ccc(O)cc1)C(=O)N[C@@H](CO)C(=O)N[C@@H](CC(N)=O)C(=O)N[C@@H](CCCNC(=N)N)C(=O)N[C@@H](CCCCN)C(=O)N[C@@H](CC(C)C)C(=O)N[C@@H](CCSC)C(=O)N[C@@H](CCC(=O)O)C(=O)N[C@H](C(=O)N[C@H](C(N)=O)[C@@H](C)CC)[C@@H](C)CC [[Nle^21, Tyr^32]-hCRF(9-41)] (H-DLTFHLLREVLE[Nle]ARAEQLAQQAYSNRKLMEII-NH2) | inhibits | –
3 | CC[C@H](C)[C@H](NC(=O)[C@@H](NC(=O)[C@H](CCC(=O)O)NC(=O)[C@H](CCSC)NC(=O)[C@H](CC(C)C)NC(=O)[C@H](CCCCN)NC(=O)[C@H](CCCNC(=N)N)NC(=O)[C@H](CC(N)=O)NC(=O)[C@H](CO)NC(=O)[C@H](Cc1c[nH]cn1)NC(=O)[C@H](C)NC(=O)[C@H](CCC(N)=O)NC(=O)[C@H](CCC(N)=O)NC(=O)[C@H](C)NC(=O)[C@H](CC(C)C)NC(=O)[C@H](CCC(N)=O)NC(=O)[C@H](CCC(=O)O)NC(=O)[C@H](C)NC(=O)[C@H](CCCNC(=N)N)NC(=O)[C@H](C)NC(=O)[C@H](CCSC)NC(=O)[C@H](CCC(=O)O)NC(=O)[C@H](CC(C)C)NC(=O)[C@@H](NC(=O)[C@H](CCC(=O)O)NC(=O)[C@H](CCCNC(=N)N)NC(=O)[C@H](CC(C)C)NC(=O)[C@H](CC(C)C)NC(=O)[C@H](Cc1c[nH]cn1)NC(=O)[C@H](Cc1ccccc1)NC(=O)[C@@H](NC(=O)[C@H](CC(C)C)NC(=O)[C@H](CC(=O)O)NC(=O)[C@H](CC(C)C)NC(=O)[C@H](CO)NC(=O)[C@@H](NC(=O)[C@@H]1CCCN1C(=O)[C@@H]1CCCN1C(=O)[C@H](CCC(=O)O)NC(=O)[C@H](CCC(=O)O)NC(=O)[C@@H](N)CO)[C@@H](C)CC)[C@@H](C)O)C(C)C)[C@@H](C)CC)C(N)=O [hCRF] | – | time for which plasma levels of ACTH and B-END-LI are elevated ([2]; intravenous administration, nembutal-anesthetized male rats and quiescent male or female rats with indwelling intravenous cannulae): 5 to 20 min; ACTH and B-END-LI secretion in vivo ([2]; several rat preparations): powerful stimulator
4 | Ac-DLTFHLLREVLEMARAEQLAQQAHSNRKLMDII-NH2 [[Acetyl-Asp^9, Asp^39]-hCRF(9-41)] | inhibits | –
5 | H-Asp-CML-Thr-Leu-Glu-CML-CML-Arg-Glu-Met-CML-Glu-Met-CMA-Lys-Ala-Glu-Gln-CML-Ala-Glu-Gln-Ala-CMA-CML-Asn-Arg-Leu-CML-Leu-Glu-Glu-. CMA-NB2 | inhibits | –
6 | H-Asp-CML-Thr-Leu-Glu-CML-Leu-Arg-Glu-Met-CML-Glu-Met-Ala-Lys-Ala-Glu-Gln-CML-Ala-Glu-Gln-Ala-Ala-CML-Asn-Arg-Leu-CML-Leu-Glu-Glu-Ala-NH2 [[CML^10,14,19,27,33,38]-AHC(9-41)] | stimulates | lowering of blood pressure [3]: very significant lowering of blood pressure
7 | H-DLSLELLRKMIEIAKQEKEKQQAANNRLLMDTI-NH2 [[Ala^21, Met^37]-sauvagine(8-40)] | inhibits | –
8 | H-DLSLELLRKMIEIEKQEKLKQQAANNRLLMDTI-NH2 [[Leu^26, Met^37]-sauvagine(8-40)] | inhibits | –
9 | H-DLTFALLREMLEMAKAEQEAEQAALNRLLLEEA-NH2 [[Ala^13]-AHC(9-41)] | inhibits | –
10 | H-DLTFELLREVLEVARAEQLAQQAHSNRKLMEII-NH2 [[G1u^13, Val^21]-hCRF(9-41)] | inhibits | –
11 | H-DLTFHLLREMLEMAKAEQEAEQAALNRLLLEEA-NH2 [AHC (9-41)] | – | plasma ACTH levels (spontaneous ACTH release) (spontaneous ACTH release): marked decrease; ACTH rise due to ether-exposure [4]: prevents most, but not all; effect on the TRF-stimulated secretion of TSH and prolactin [5]: no effect; inhibition of CRF-induced ACTH secretion [6]: dose-related inhibition; effect on the GRF-stimulated secretion of GH [7]: no effect; effect on the GnRH-stimulated secretion of LH and FSH [8]: no effect; type of inhibition of oCRF-stimulated ACTH secretion ([1]; different concentrations of oCRF, several concentrations of antagonist against oCRF (1 nM)): competitive inhibition
12 | H-DLTFHLLREVAEMTRAEQLAQQAHSNRKLMEII-NH2 [(Ala^19, Thr^22]-hCRF(9-41)] | inhibits | –
13 | H-DLTFHLLRNMIEMARNENQREQAGLNRKYLDEV-NH2 [Carp Urotensin 1(9-41)] | inhibits | –
14 | H-DLTLELLREMLEMAKAEQEAEQAALNRLLLEEA-NH2 [[Leu^12, Glu^13]-AHC(9-41)] | inhibits | –
15 | H-IDLTFHLLRNMIEMARNENQREQAGLNRKYLDEV-NH2 [Carp Urotensin 1(8-41)] | inhibits | –
16 | H-LDLTFHLLREVLEMAKAEQLAQQAHSNRKLLEII-NH2 [[Lys^23, Leu^38]-hCRF(8-41)] | inhibits | –
17 | H-LDLTLELLREMLEMEKAEKEAEQAALNRLLLEEA-NH2 [[G1u^13,22, Leu^l2, Lys^26]-AHC(8-41)] | inhibits | –
18 | LSLELLRKMIEARKQEKEKQQAANNRLLLDII-NH2 | inhibits | –
